Reference: patent publication US20050020482A1, “Methods for modulating gap junctions” (priority 2001, published 2005)

How the values were obtained:
[1] = system: gap junction function in IMR32; format: cell-based
Description: The classical scrape loading test was used to monitor the function of gap junction channels. Briefly, a cut is performed with a fine needle in sub-confluent cell cultures (refer reverse phases micrograph 5B). The culture is then covered with a film of fluorescent dye Lucifer yellow which is not cell permeant. The dye however penetrates the wounded cells along the scrape. From these loaded cells the dye can only be transferred to neighbor cells through the gap junction channels. The number of cell rows that receive the dye after a given time (3 min) provides an estimation of the gap junction function. Primary antibodies specific to PKC isoforms alpha beta I and beta II were introduced individually or in combination (as shown) by endocytosis using a kit from Molecular Probe following the supplier instructions. Controls for the introduction of the specific antibodies were performed by fixing and permeabilizing the cells then staining them with a secondary antibody conjugated to Texas red (Johnson labs).
All documents referred to are incorporated herein by reference.

[2] = system: IMR32 neuroblastoma cells; assay: Growth of IMR32 neuroblastoma cells in vitro (population size, Hoechst fluorometry); format: cell-based; parameters: population size, percent of matching controls: concentration or dose not given beside the values; conditions: for population size, percent of matching controls: 24 replica
Description: Legend: IMR32 neuroblastoma cells were seeded in 96 well plates at a density of 1000 cells per well. Treatments were as follows: Control cells are untreated and growing in a MEM-based proliferation medium. […] A2+RA treatment consisted of medium A2 supplemented with all trans retinoic acid (RA) 1 uM on day 2; A1+RA consist of RA supplementation 1 uM in the absence of the cAMP analog. The population size (24 replica per treatment) was determined by a procedure using Hoechst as a reagent and cytofluor (BioRad) fluorometer for measurement. The results are expressed as a percent of matching controls.

Structure (SMILES) | cell death [1] | gap junction function [1] | population size, percent of matching controls ([2]; day 1) | population size, percent of matching controls ([2]; day 2) | population size, percent of matching controls ([2]; day 3) | population size, percent of matching controls ([2]; day 4) | population size, percent of matching controls ([2]; day 5) | population size, percent of matching controls ([2]; day 6) | effect on growth (in words) ([2]; legend of Table 1)
Oc1ccc(-c2nc(-c3ccncc3)c(-c3ccc(F)cc3)[nH]2)cc1 [SB202190] | died of apoptosis | Gap junction function resuming |  |  |  |  |  |  | 
CC1=C(/C=C/C(C)=C/C=C/C(C)=C/C(=O)O)C(C)(C)CCC1 [all trans retinoic acid (RA), all trans retinoic acid] |  |  | 84% | 87% | 90% | 63% | 70% | 68% | not very efficient in affecting growth
